Experimental data as given in ChEMBL document CHEMBL3112399, “Discovery of pyrazolo[3,4-d]pyrimidine derivatives as GPR119 agonists” (Bioorg Med Chem Lett, 2014).
≈ marks a conversion by molar mass, not a printed value. Calls of active or inactive are those of the source. The rule behind the calls is not given here.

What was measured:
[1] = Agonist activity at GPR119 receptor in hamster HIT-T15 cells assessed as intracellular cAMP level; type: cell-based; conditions: Cricetinae
HIT-T15 = assay: Agonist activity at GPR119 receptor in hamster HIT-T15 cells assessed as intracellular cAMP level relative to AR-231,453; type: cell-based; conditions: Cricetinae
Cytochrome P450 3A4 = Cytochrome P450 3A4 (Homo sapiens, UniProt P08684); assay: Inhibition of CYP3A4 (unknown origin); type: ADME
Sequence of Cytochrome P450 3A4 (P08684 whole entry): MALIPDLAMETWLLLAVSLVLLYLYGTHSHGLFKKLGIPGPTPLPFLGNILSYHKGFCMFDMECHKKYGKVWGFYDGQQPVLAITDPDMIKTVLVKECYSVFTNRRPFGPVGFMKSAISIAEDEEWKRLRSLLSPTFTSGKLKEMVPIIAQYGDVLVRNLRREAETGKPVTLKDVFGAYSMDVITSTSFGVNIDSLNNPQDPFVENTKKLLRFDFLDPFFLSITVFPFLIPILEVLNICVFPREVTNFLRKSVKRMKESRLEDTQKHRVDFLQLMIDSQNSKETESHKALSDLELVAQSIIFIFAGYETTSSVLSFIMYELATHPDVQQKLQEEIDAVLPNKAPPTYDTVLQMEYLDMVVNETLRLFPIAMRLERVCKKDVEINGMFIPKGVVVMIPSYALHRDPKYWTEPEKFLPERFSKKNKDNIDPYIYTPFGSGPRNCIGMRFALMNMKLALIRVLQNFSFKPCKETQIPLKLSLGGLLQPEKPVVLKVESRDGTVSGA

hERG (KCNH2) = hERG (KCNH2) (Homo sapiens, UniProt Q12809); assay: Inhibition of human ERG channel
Sequence of hERG (KCNH2) (Q12809 whole entry): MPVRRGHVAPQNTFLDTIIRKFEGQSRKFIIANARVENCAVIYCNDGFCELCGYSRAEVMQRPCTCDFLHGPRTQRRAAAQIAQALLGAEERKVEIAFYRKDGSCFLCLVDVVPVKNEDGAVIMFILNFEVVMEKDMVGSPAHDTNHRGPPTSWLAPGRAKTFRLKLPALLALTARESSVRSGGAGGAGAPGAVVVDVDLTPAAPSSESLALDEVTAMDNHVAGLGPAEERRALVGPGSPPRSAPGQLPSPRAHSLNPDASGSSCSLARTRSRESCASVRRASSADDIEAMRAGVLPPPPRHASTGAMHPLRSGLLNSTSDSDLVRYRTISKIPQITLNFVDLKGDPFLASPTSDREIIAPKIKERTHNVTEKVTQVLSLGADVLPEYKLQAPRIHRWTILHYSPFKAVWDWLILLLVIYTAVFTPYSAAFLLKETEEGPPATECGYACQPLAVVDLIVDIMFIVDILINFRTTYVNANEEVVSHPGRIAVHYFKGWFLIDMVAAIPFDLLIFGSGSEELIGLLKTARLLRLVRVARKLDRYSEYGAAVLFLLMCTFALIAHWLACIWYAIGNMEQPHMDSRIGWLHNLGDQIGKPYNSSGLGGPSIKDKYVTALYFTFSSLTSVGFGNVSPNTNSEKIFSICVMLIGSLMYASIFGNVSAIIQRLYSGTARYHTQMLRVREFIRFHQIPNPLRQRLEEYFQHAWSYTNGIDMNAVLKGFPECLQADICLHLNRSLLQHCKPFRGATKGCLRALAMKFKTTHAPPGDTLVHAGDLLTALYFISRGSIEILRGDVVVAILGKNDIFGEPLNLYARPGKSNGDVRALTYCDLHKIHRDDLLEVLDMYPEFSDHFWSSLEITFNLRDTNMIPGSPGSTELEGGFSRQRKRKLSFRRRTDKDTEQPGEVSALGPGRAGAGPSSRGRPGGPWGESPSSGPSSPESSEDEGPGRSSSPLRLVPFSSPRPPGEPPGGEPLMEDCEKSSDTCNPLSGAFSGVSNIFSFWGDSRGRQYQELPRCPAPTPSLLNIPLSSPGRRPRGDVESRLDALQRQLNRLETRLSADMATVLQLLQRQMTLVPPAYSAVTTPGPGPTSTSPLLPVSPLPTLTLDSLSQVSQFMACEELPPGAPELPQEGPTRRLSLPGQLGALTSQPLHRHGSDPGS

[2] = Kinetic solubility of the compound at pH 6.5; type: physicochemical; conditions: buffer, read-out: Kinetic_solubility
Cytochrome P450 2C9 = Cytochrome P450 2C9 (Homo sapiens, UniProt P11712); assay: Inhibition of CYP2C9 (unknown origin); type: ADME
Sequence of Cytochrome P450 2C9 (P11712 whole entry): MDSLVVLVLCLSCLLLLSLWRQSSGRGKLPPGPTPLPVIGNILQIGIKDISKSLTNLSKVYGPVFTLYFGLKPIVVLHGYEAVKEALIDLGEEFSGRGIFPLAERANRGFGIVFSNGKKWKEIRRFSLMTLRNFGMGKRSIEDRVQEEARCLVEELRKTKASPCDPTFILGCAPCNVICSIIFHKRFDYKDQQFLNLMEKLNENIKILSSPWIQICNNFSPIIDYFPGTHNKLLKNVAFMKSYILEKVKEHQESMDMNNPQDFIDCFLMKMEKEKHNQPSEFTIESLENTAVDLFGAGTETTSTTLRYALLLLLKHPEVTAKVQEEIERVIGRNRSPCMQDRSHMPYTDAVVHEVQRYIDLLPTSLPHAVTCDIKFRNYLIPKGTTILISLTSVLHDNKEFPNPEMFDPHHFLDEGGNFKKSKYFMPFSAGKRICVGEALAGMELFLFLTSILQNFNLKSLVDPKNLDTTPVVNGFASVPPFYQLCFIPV

[3] = Clearance in mouse liver microsomes; type: ADME, Microsome; conditions: read-out: CLH
Mus musculus = assay: Antihyperglycemic activity in C57Bl/6J mouse assessed as reduction of AUC (0 to 120 mins) of glucose excursion at 30 mg/kg, po administered 2 hrs before glucose challenge; type: functional
[4] = Clearance in mouse at 5 mg/kg, iv; type: ADME, organism-based; set-up: dose 5 mg/kg, route intravenous; conditions: in vivo
[5] = Tmax in mouse at 10 mg/kg, po; type: ADME, organism-based; set-up: dose 10 mg/kg, route oral; conditions: in vivo
Hepatocyte = assay: Metabolic stability of the compound in mouse hepatocytes assessed as glutathione adduct formation; type: ADME, cell-based
[6] = Cmax in mouse at 10 mg/kg, po; type: ADME, organism-based; set-up: dose 10 mg/kg, route oral; conditions: in vivo
[7] = Volume of distribution in mouse at 5 mg/kg, iv; type: ADME, organism-based; set-up: dose 5 mg/kg, route intravenous; conditions: in vivo
[8] = Oral bioavailability in mouse at 10 mg/kg; type: ADME, organism-based; conditions: in vivo
[9] = AUC in mouse at 10 mg/kg, po; type: ADME, organism-based; set-up: dose 10 mg/kg, route oral; conditions: plasma
[10] = AUC in mouse at 5 mg/kg, iv; type: ADME, organism-based; set-up: dose 5 mg/kg, route intravenous; conditions: plasma
[11] = Half life in mouse at 5 mg/kg, iv; type: ADME, organism-based; set-up: dose 5 mg/kg, route intravenous; conditions: in vivo

Structure (SMILES)	EC50 [1] [nM]	Emax (HIT-T15) [%]	further results
CC(C)OC(=O)N1CCC(n2ncc3c(Nc4ccc(S(C)(=O)=O)cc4)ncnc32)CC1	5740	92	
CC(C)(C)OC(=O)N1CCC(n2ncc3c(Oc4ccc(C#N)cc4)ncnc32)CC1	580	87	
CS(=O)(=O)c1ccc(Oc2ncnc3c2cnn3C2CCN(C(=O)OCC(Cl)(Cl)Cl)CC2)cc1	18	90	
CS(=O)(=O)c1ccc(Oc2ncnc3c2cnn3C2CCN(Cc3cccc(OC(F)(F)F)c3)CC2)cc1	120	54	
CC(C)C(=O)N1CCC(n2ncc3c(Oc4ccc(S(C)(=O)=O)cc4)ncnc32)CC1	990	60	
CC(C)COC(=O)N1CCC(n2ncc3c(Oc4ccc(S(C)(=O)=O)cc4)ncnc32)CC1	110	84	
CS(=O)(=O)c1ccc(Oc2ncnc3c2cnn3C2CCN(Cc3ccccc3)CC2)cc1	580	87	
CS(=O)(=O)c1ccc(Oc2ncnc3c2cnn3C2CCN(Cc3ccc(F)cc3)CC2)cc1	200	69	
CS(=O)(=O)c1ccc(Oc2ncnc3c2cnn3C2CCN(C(=O)CCc3ccccc3)CC2)cc1	1000	94	
CC(C)(C)OC(=O)N1CCC(n2ncc3c(Oc4cccc(C(C)(C)C)c4)ncnc32)CC1	> 25000	27	
CC(C)(C)OC(=O)N1CCC(n2ncc3c(Oc4cc(F)c(F)cc4F)ncnc32)CC1	88	95	
CC(C)(C)OC(=O)N1CCC(n2ncc3c(Oc4ccccc4)ncnc32)CC1	> 25000	30	
CC(C)(C)CC(=O)N1CCC(n2ncc3c(Oc4ccc(S(C)(=O)=O)cc4)ncnc32)CC1	270	58	
CC(C)(C)OC(=O)N1CCC(n2ncc3c(Oc4ccc(S(C)(=O)=O)cc4)ncnc32)CC1	43	101	IC50 (Cytochrome P450 3A4): 3.1 µM; IC20 (hERG (KCNH2)): 2700 nM; solubility kinetic [2]: < 1 µg/mL; IC50 (Cytochrome P450 2C9): > 3 µM; microsomal CLint [3]: 86 µL/min/mg; Activity (Mus musculus): inactive
CC(C)(C)OC(=O)N1CCC(n2ncc3c(Nc4ccc(S(C)(=O)=O)cc4F)ncnc32)CC1	240	103	IC20 (hERG (KCNH2)): 2600 nM; solubility kinetic [2]: 8 µg/mL (≈ 16.3 µM); IC50 (Cytochrome P450 2C9): 0.9 µM; microsomal CLint [3]: 70 µL/min/mg
CC(=O)c1ccc(Oc2ncnc3c2cnn3C2CCN(C(=O)OC(C)(C)C)CC2)cc1	160	83	

Structure (SMILES)	EC50 [1] [nM]	Emax (HIT-T15) [%]	further results
CC(C)OC(=O)N1CCC(n2ncc3c(Oc4ccc(S(C)(=O)=O)cc4)ncnc32)CC1	150	92	clearance [4]: 3.3 mL/min/kg; IC50 (Cytochrome P450 3A4): > 6 µM; IC20 (hERG (KCNH2)): 500 nM; solubility kinetic [2]: < 1 µg/mL; Tmax [5]: 4 h; Stability (Hepatocyte): Unstable; Cmax [6]: 13.2 µM; IC50 (Cytochrome P450 2C9): > 6 µM; microsomal CLint [3]: 85 µL/min/mg; Vd [7]: 0.46 L/kg; bioavailability [8]: 82%; AUC [9]: 41300 ng·h/mL; AUC [10]: 25300 ng·h/mL; half-life [11]: 96 min; Activity (Mus musculus): 44%
CC(C)CC(=O)N1CCC(n2ncc3c(Oc4ccc(S(C)(=O)=O)cc4)ncnc32)CC1	330	59	IC50 (Cytochrome P450 3A4): > 25 µM; IC20 (hERG (KCNH2)): 2700 nM; solubility kinetic [2]: 32 µg/mL (≈ 69.9 µM); IC50 (Cytochrome P450 2C9): > 25 µM; microsomal CLint [3]: 29 µL/min/mg
CC(C)(C)COC(=O)N1CCC(n2ncc3c(Oc4ccc(S(C)(=O)=O)cc4)ncnc32)CC1	100	93	
CS(=O)(=O)c1ccc(Oc2ncnc3c2cnn3C2CCN(Cc3cccc(Cl)c3)CC2)cc1	280	83	
CC(C)(C)OC(=O)N1CCC(n2ncc3c(Oc4ccc(C(C)(C)C)cc4)ncnc32)CC1	> 25000	13	
CCOC(=O)N1CCC(n2ncc3c(Oc4ccc(S(C)(=O)=O)cc4)ncnc32)CC1	650	81	
CC(C)(C)OC(=O)N1CCC(n2ncc3c(Oc4ccc(F)cc4)ncnc32)CC1	540	82	
CC(C)(C)OC(=O)N1CCC(n2ncc3c(Nc4ccc(S(C)(=O)=O)cc4)ncnc32)CC1	1400	105	
CC(C)(C)OC(=O)N1CCC(n2ncc3c(Oc4ccc(C(F)(F)F)cc4)ncnc32)CC1	> 25000	27	
CS(=O)(=O)c1ccc(Oc2ncnc3c2cnn3C2CCN(Cc3ccc(C(F)(F)F)cc3)CC2)cc1	36	59	IC50 (Cytochrome P450 3A4): 1.8 µM; IC20 (hERG (KCNH2)): 200 nM; solubility kinetic [2]: < 1 µg/mL; IC50 (Cytochrome P450 2C9): > 6 µM; microsomal CLint [3]: 114 µL/min/mg
CC(C)(C)OC(=O)N1CCC(n2ncc3c(Oc4ccccc4F)ncnc32)CC1	190	107	
CC(C)(C)OC(=O)N1CCC(n2ncc3c(Nc4cc(F)c(F)cc4F)ncnc32)CC1	530	97	
CS(=O)(=O)c1ccc(Nc2ncnc3c2cnn3C2CCN(Cc3ccccc3)CC2)cc1	19000	64	
COc1cc(OC)cc(Oc2ncnc3c2cnn3C2CCN(C(=O)OC(C)(C)C)CC2)c1	6400	34	
CC(C)(C)OC(=O)N1CCC(n2ncc3c(Oc4ccccc4C#N)ncnc32)CC1	61		
CS(=O)(=O)c1ccc(Oc2ncnc3c2cnn3C2CCN(Cc3ccc(Cl)cc3)CC2)cc1	570	73	
